Data as given in patent US8835644B2, “Broad spectrum benzothiophene-nitrothiazolide and other antimicrobials” (University of Virginia Patent Foundation, priority 2009, dated 2014).
Values after ≈ are worked out from the molar mass of the structure shown. Where two headings read alike, the source gives them in different places.

Key:
[1] = system: MRSA; assay: MIC testing by broth dilution, MRSA; format: cell-based, Staphylococcus aureus
Protocol: (§1) A standard broth dilution protocol was used in 96 well microplates containing a standard dilution of the microorganism to be tested in 100 microliters of the appropriate medium. Appropriate medium: E. coli, LB medium; Staphylococcus strains, Trypticase Soy; and for H. pylori and C. jejuni, Brain Heart Infusion. The compounds to be tested were set at 32 μg/ml in 200 microliters in well one and then serially diluted to provide a range from 32 to 0.06. The wells were scored visually at 24 h. The well where there was no growth was recorded as the MIC. Clostridium difficile was tested by agar diffusion and disk diffusion (Kirby Bower) methods under anaerobic conditions on Wilkins Chalgrin agar. In these assays, zone of inhibited growth was measured and compared by relative ratio to the zone recorded for NTZ.
(§2) Representative compounds of the invention were tested in a series of assays against a series of organisms as described above. […] The organisms tested include, C. difficile, H. pylori, C. jejuni, MRSA, S. epidermidis, and E. coli. S. epidermidis and E. coli were tested in the plank and biofilm assay. A disk diffusion assay was also used for C. difficile. Direct PFOR enzyme assays were also performed. All analogues and derivatives were not tested on every organism in every type of assay (the “-” in each table means that it was not tested).

[2] = system: E. coli; assay: MIC testing by broth dilution, E. coli plank; format: cell-based, Escherichia coli
Protocol: as §1, §2

[3] = system: E. coli biofilm; assay: E. coli biofilm assay (activity tables); format: cell-based, Escherichia coli; settings: biofilm; read-out: MIC (μM) E. coli Biofilm
Protocol: A quantitative biofilm assay was used to determine the effect of NTZ on biofilm formation (41). Strain 042 was grown overnight at 37° C. with shaking and inoculated 1:100 in 200 μl culture medium in Costar 96-well, flat-bottom, polystyrene microtiter plates containing appropriate concentrations of NTZ. Plates were incubated statically at 37° C. in a humidified incubator. At 24 h, bacterial growth was measured by either transferring […] aliquots to another microtiter plate to determine turbidity or by diluting 100 μl aliquots 1:100 in 9.9 ml PBS for quantitative plate counts on LB medium. Bacterial counts in triplicate are reported as cfu/ml. Biofilm was visualized following staining with 0.5% crystal violet (41) and the absorbance was read at 570 nm using a microplate reader (Molecular Dynamics). All experiments were in triplicate and reported as mean and standard deviation.
as §1, §2

[4] = system: S. epidermidis; assay: MIC testing by broth dilution, S. epidermidis plank; format: cell-based, Staphylococcus epidermidis
Protocol: as §1, §2

[5] = system: C. jejuni; assay: MIC testing by broth dilution, C. jejuni; format: cell-based, Campylobacter jejuni
Protocol: as §1, §2

[6] = system: H. pylori; assay: MIC testing by broth dilution, H. pylori; format: cell-based, Helicobacter pylori
Protocol: as §1, §2

[7] = system: C. difficile; assay: Disk diffusion (Kirby Bower), C. difficile; format: cell-based, Clostridium difficile; settings: for Disk Diffusion (%) C. difficile: zone of inhibited growth as relative ratio to the zone for NTZ; for Disk Diff (%) C. difficile: Nitazoxanide = 100
Protocol: as §1, §2

[8] = broth dilution, Trypticase Soy, 24 h, read-out: MIC (μM) MRSA
[9] = broth dilution, LB medium, 24 h, read-out: MIC (μM) E. coli Plank
[10] = broth dilution, Trypticase Soy, 24 h, read-out: MIC (μM) S. epidermidis Plank
[11] = broth dilution, Brain Heart Infusion, 24 h, read-out: MIC (μM) C. jejuni
[12] = broth dilution, Brain Heart Infusion, 24 h, read-out: MIC (μM) H. pylori

Row | MIC [1, 8] [µM] | MIC [2, 9] [µM] | MIC [4, 10] [µM] | MIC [5, 11] [µM] | MIC [6, 12] [µM] | SMILES | Disk Diffusion (%) C. difficile [7] [%] | further results
1 | 91.3 (≈ 32 µg/mL) | 91.3 (≈ 32 µg/mL) | 22.8 (≈ 7.99 µg/mL) | 34.3 (≈ 12 µg/mL) | 1.1 (≈ 0.385 µg/mL) | CC(=O)NCCOc1ccccc1C(=O)Nc1ncc([N+](=O)[O-])s1 [VPC162044] | 77 | 
2 | 61.6 (≈ 32 µg/mL) | 61.6 (≈ 32 µg/mL) | 61.6 (≈ 32 µg/mL) | 61.6 (≈ 32 µg/mL) | 0.7 (≈ 0.364 µg/mL) | CC(C)(C)OC(=O)N1CCC(C(=O)NCCOc2ccccc2C(=O)Nc2ncc([N+](=O)[O-])s2)CC1 [VPC162059] | 38 | 
3 |  |  |  |  |  | O=C(Nc1ncc([N+](=O)[O-])s1)c1cc2ccc(F)cc2s1 [VPC162037] |  | MIC ([1]; Thiophene analogues table, read-out: MIC MRSA): 61.9 µM (≈ 20 µg/mL); MIC ([2]; planktonic, Thiophene analogues table, read-out: MIC E. coli Plank): 99.0 µM (≈ 32 µg/mL); Disk Diff (%) C. difficile ([7]; Thiophene analogues table): 70%; MIC ([4]; planktonic, Thiophene analogues table, read-out: MIC S. epidermidis Plank): 49.5 µM (≈ 16 µg/mL); MIC ([5]; Thiophene analogues table, read-out: MIC C. jejuni): 6.2 µM (≈ 2 µg/mL); MIC ([6]; Thiophene analogues table, read-out: MIC H. pylori): 3.1 µM (≈ 1 µg/mL)
4 |  |  |  |  |  | O=C(Nc1ccccc1)c1ncc([N+](=O)[O-])s1 [VPC161232] | 0 | MIC ([1]; Staphylococcus aureus, MRSA, broth dilution, Trypticase Soy, 24 h, read-out: MIC (μM) MRSA): 32.1 µM (≈ 8 µg/mL); MIC ([2]; Escherichia coli, broth dilution, LB medium, 24 h, read-out: MIC (μM) E. coli Plank): 128 µM (≈ 32 µg/mL); MIC ([4]; Staphylococcus epidermidis, broth dilution, Trypticase Soy, 24 h, read-out: MIC (μM) S. epidermidis Plank): 16 µM (≈ 3.99 µg/mL); MIC ([5]; Campylobacter jejuni, broth dilution, Brain Heart Infusion, 24 h, read-out: MIC (μM) C. jejuni): 8 µM (≈ 1.99 µg/mL); MIC ([6]; Helicobacter pylori, broth dilution, Brain Heart Infusion, 24 h, read-out: MIC (μM) H. pylori): 6 µM (≈ 1.5 µg/mL)
5 | 74.9 (≈ 32 µg/mL) | 74.9 (≈ 32 µg/mL) | 74.9 (≈ 32 µg/mL) | 74.9 (≈ 32 µg/mL) | 0.4 (≈ 0.171 µg/mL) | O=C(NCCOc1ccccc1C(=O)Nc1ncc([N+](=O)[O-])s1)Nc1ccccc1 [VPC162048] | 31 | 
6 | 82.8 (≈ 32 µg/mL) | 82.8 (≈ 32 µg/mL) | 62.1 (≈ 24 µg/mL) | 51.8 (≈ 20 µg/mL) | 0.6 (≈ 0.232 µg/mL) | CS(=O)(=O)NCCOc1ccccc1C(=O)Nc1ncc([N+](=O)[O-])s1 [VPC162045] | 51 | 
7 |  |  |  |  |  | O=C(Nc1ncc([N+](=O)[O-])s1)c1cc2cc([N+](=O)[O-])ccc2o1 [VPC16a1019] |  | MIC ([1]; Furan analogues table, read-out: MIC MRSA): 47.9 µM (≈ 16 µg/mL); MIC ([2]; planktonic, Furan analogues table, read-out: MIC E. coli Plank): 95.7 µM (≈ 32 µg/mL); Disk Diff (%) C. difficile ([7]; Furan analogues table): 77%; MIC ([4]; planktonic, Furan analogues table, read-out: MIC S. epidermidis Plank): 23.9 µM (≈ 7.99 µg/mL); MIC ([5]; Furan analogues table, read-out: MIC C. jejuni): 4.5 µM (≈ 1.5 µg/mL); MIC ([6]; Furan analogues table, read-out: MIC H. pylori): 4.5 µM (≈ 1.5 µg/mL)
8 | 85.8 | 85.8 | 42.9 | 5.4 | 2.0 | Cl.NCCCCOc1ccccc1C(=O)Nc1ncc([N+](=O)[O-])s1 [VPC162096HCl] | 111 | 
9 | 73.3 | 73.3 | 73.3 | 13.8 | 0.9 | NCCCOc1ccccc1C(=O)Nc1ncc([N+](=O)[O-])s1.O=C(O)C(F)(F)F [VPC162102TFA] | 79 | 
10 | 89.2 | 89.2 | 44.6 | 8.4 | 1.0 | Cl.NCCCOc1ccccc1C(=O)Nc1ncc([N+](=O)[O-])s1 [VPC162102HCl] | 74 | 

Row | SMILES | MIC [1, 8] [µM] | MIC [2, 9] [µM] | MIC [4, 10] [µM] | MIC [5, 11] [µM] | MIC [6, 12] [µM] | Disk Diffusion (%) C. difficile [7] [%] | further results
11 | O=C(Nc1ncc([N+](=O)[O-])s1)c1ccc(F)c([N+](=O)[O-])c1 [VPC16b1017] | 76.9 (≈ 24 µg/mL) | 102.5 (≈ 32 µg/mL) | 51.2 (≈ 16 µg/mL) | 51.2 (≈ 16 µg/mL) | 1.6 (≈ 0.5 µg/mL) |  | MIC [3]: 102.5 µM (≈ 32 µg/mL)
12 | NCCOc1ccccc1C(=O)Nc1ncc([N+](=O)[O-])s1.O=C(O)C(F)(F)F [VPC161219TFA] | 75.8 | 75.8 | 75.8 | 14.2 | 1.88 | 81 | 
13 | O=C(Nc1ncc([N+](=O)[O-])s1)c1ccc(C(F)(F)F)cc1[N+](=O)[O-] [VPC16b1016] | 88.3 (≈ 32 µg/mL) | 88.3 (≈ 32 µg/mL) | 88.3 (≈ 32 µg/mL) | 88.3 (≈ 32 µg/mL) | 8.3 (≈ 3.01 µg/mL) |  | MIC [3]: 88.3 µM (≈ 32 µg/mL)
